According to patent US4791200A, “2-substituted-4-aryl-substituted thiazoles” (Ortho Pharmaceutical Corporation, priority 1987, dated 1988):
Read-outs that look alike come from different tables or passages of the source.

Assays:
parietal cells = assay: Isolated Parietal Cell Assay (14C-aminopyrine accumulation, histamine or dibutyryl cAMP stimulated); assay type: cell-based, rabbit; conditions: Oryctolagus cuniculus
Method: The isolated parietal cell assay was conducted using the procedures of Batzri, S. et al., Biochemica et Biophysica Acta 508, 328 (1978) and Soll, A. H. Am. J. Physiol. 238, G366 (1980). Basically, parietal cells were isolated from the fundic mucosa of rabbit stomachs by a four-stage collagenase digestion process. The supernatant fractions from the last two stages of this process contain the individual parietal cells. This cell suspension was centrifuged and reconstituted in a modified Hank's buffer to contain 1-2×10^6 cells/ml. […] This accumulation was stimulated by histamine and was blocked by H2 antagonists. The cells were incubated with 0.4-0.5×10^6 cpm ^14 C-AP, with various concentrations of histamine as a stimulant, 1×10^-5 M isobutylmethylxanthine, and the test compound added in a 20 μl volume of buffer or DMSO. The flasks were incubated in a shaking water bath at 37° C. for 20 minutes. Two aliquots were then taken from each flask and cell pellets were collected by centrifugation. The pellets were solubilized with Protosol (New England Nuclear) and radioactivity determined by liquid scintillation spectrometry. Data is presented as the IC50 vhist, the concentration of compound required to inhibit ^14 C-AP accumulation in the histamine stimulated parietal cell by 50%.
When dibutyryl cAMP was used to stimulate the cells instead of histamine, a similar inhibition of ^14 C-AP accumulation was measured and the data are presented as the IC50 vcAMP, the concentration required to inhibit ^14 C-AP accumulation in the cAMP stimulated parietal cell by 50%.

[1] = target: T1, parietal cell H^+ K^+ ATPase (Oryctolagus cuniculus, UniProt P27112); assay: Inhibition of Parietal Cell H^+ K^+ ATPase; assay type: biochemical, New Zealand white rabbits; conditions: read-out: % Inhibition at Concentration; for inhibition at 100 µM: at 10^-4 M
T1 construct: determined in fundic mucosa from New Zealand white rabbits which were homogenized; from tissue; host or cells: fundic mucosa of New Zealand white rabbits, homogenized; membrane protein
Method: The activity was measured in a 1 ml incubation volume containing 50 mM Tris pH 7.4, 2 mM MgCl2, 2 mM Na2 ATP, with or without 20 mM KCl and vehicle control (dimethylsulfoxide) or test compound added in a 0.02 ml volume. Typically, 20-50 μg membrane protein was added and the tubes were preincubated with test compound for 10 minutes at 37° C. Substrate, Na2 ATP, was then added and the tubes were incubated for another 15 minutes at 37° C. The reaction was stopped by the addition of 1 ml 14% trichloroacetic acid and the samples were centrifuged at 2,000 ×g for 10 minutes. The amount of inorganic phosphate present in an aliquot of supernatant was determined. H^+ K^+ ATPase activity was determined after correcting for the basal (Mg^++ only) enzyme activity present in the membrane preparation.

[2] = system: acid output (gastric secretion); assay: Gastric Secretion (pylorus ligation, modified Shay); assay type: in vivo, male Charles River Sprague Dawley derived rats; conditions: i.d. or s.c., 4 hours after ligation; for response vs control in vivo at 40 mg/kg: at 40 mpK
Method: The inhibitory activity of the compounds on acid output was tested using pylorus ligation in a modification of the procedure of Shay, H. et al., Gastroenterology 26, 906 (1954). Basically, male Charles River Sprague Dawley derived rats weighing 150-300 grams were deprived of food but not water for 18-24 hours prior to use. Water was withheld during the experiment, however. The rats were weighed, anesthetized with ether and the pylorus ligated according to the method of Shay et al., supra. Treatment or vehicle control was then administered intraduodenally (i.d.) or subcutaneously (s.c.). Rats were housed two/cage and sacrificed with CO2 four hours after ligation. The stomachs were removed, rinsed, and contents emptied into a graduated centrifuge tube. The tubes were centrifuged, the volume of gastric juice recorded, and any samples obviously contaminated by feces, food or blood were eliminated. A 1 ml aliquot of gastric juice was titrated with 0.1N NaOH to a pH of 7.0-7.4. The volume of gastric juice secreted, the acid concentration, and the product of the volume times the concentration, i.e., the total amount of acid secreted, were measured.

[3] = 20 min, histamine stimulated, 37° C., 20 minutes, read-out: IC50 vhist (inhibition of 14C-AP accumulation in the histamine stimulated parietal cell)
[4] = dibutyryl cAMP stimulated, read-out: IC50 vcAMP (inhibition of 14C-AP accumulation in the cAMP stimulated parietal cell)
[5] = Rattus norvegicus, read-out: % Acid Secreted at mpK

T1 sequence (P27112 2-1035 limits assumed): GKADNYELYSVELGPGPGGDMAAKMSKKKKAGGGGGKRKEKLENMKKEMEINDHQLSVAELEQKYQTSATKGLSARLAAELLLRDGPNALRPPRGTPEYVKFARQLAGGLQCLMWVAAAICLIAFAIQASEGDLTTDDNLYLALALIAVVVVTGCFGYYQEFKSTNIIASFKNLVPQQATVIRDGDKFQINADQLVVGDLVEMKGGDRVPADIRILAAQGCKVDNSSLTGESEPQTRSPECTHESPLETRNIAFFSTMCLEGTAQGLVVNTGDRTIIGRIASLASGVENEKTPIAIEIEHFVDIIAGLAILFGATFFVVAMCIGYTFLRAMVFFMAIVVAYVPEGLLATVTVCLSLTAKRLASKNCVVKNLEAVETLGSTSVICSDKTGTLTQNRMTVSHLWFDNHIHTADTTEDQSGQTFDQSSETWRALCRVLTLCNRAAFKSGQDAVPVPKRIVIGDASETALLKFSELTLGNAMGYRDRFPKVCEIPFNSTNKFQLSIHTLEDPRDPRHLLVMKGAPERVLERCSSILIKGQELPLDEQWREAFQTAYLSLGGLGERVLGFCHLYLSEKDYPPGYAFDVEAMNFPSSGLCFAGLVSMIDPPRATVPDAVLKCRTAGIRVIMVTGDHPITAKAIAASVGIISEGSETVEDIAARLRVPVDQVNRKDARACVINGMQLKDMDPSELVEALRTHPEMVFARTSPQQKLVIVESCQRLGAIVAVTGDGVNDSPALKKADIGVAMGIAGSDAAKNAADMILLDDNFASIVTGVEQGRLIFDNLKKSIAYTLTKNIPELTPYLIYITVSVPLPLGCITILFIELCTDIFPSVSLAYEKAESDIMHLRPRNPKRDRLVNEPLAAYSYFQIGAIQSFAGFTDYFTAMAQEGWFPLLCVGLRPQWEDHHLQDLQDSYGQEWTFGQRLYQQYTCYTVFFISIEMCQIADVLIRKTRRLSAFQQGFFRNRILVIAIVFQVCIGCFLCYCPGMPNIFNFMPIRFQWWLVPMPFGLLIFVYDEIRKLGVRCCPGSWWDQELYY
T1 sequence (P18597 whole entry partner): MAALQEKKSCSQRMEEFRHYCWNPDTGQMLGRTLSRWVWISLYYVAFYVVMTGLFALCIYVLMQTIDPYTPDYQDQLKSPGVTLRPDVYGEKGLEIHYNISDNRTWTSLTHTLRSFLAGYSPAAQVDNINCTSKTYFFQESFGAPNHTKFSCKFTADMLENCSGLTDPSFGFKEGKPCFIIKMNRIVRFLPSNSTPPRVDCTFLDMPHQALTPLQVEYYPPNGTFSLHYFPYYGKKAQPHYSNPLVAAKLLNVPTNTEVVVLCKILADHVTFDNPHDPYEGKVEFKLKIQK

Compound	IC50 (parietal cells; [3]) [nM]	IC50 (parietal cells; [4]) [nM]	inhibition at 100 µM [1] [%]	response vs control in vivo at 40 mg/kg [2, 5] [%]	% Acid Secreted at mpK ([2]; at 20 mpK) [%]	further results
CCCCN(CCCC)CCCOc1ccc(-c2csc(-c3ccccc3)n2)cc1 [Example 1, 4-(4-Dibutylaminopropoxyphenyl)-2-phenylthiazole]	450	420	47	97	75	response vs control in vivo at 17 mg/kg ([2]; Rattus norvegicus, at 17.0 mpK, read-out: % Acid Secreted at mpK): 50%
CCCCN(CCCC)CCCOc1ccc(-c2csc(C)n2)cc1 [Example 2, 4-(4-Dibutylaminopropoxyphenyl)-2-methylthiazole]	1500	8400	22		8	
CCCCN(CCCC)CCCOc1ccc(-c2nc(-c3ccccc3)sc2C)cc1 [Example 3, 4-(4-Dibutylaminopropoxyphenyl)-5-methyl-2-phenylthiazole]	270	230	65		36	
CCN(CC)CCCOc1ccc(-c2csc(-c3ccccc3)n2)cc1 [Example 4, 4-(4-Diethylaminopropoxyphenyl)-2-phenylthiazole]	120	90		82		inhibition at 47 µM ([1]; at 47 μM): 50%
CCCN(CCC)CCCOc1ccc(-c2csc(-c3ccccc3)n2)cc1 [Example 5, 4-(4-Dipropylaminopropoxyphenyl)-2-phenylthiazole]	230	180	60	94		
CN1CCN(CCCOc2ccc(-c3csc(-c4ccccc4)n3)cc2)CC1 [Example 6, 4-[4-(4-Methylpiperazol-1-yl)propoxyphenyl]-2-phenylthiazole]	180	120		18		inhibition at 44 µM ([1]; at 44 μM): 50%
COc1ccccc1N1CCN(CCCOc2ccc(-c3csc(-c4ccccc4)n3)cc2)CC1 [Example 7, 4-[4-[4-(2-Methoxyphenyl)piperazol-1-yl]propoxyphenyl]-2-phenylthiazole]	480	340	28			
c1ccc(-c2nc(-c3ccc(OCCCN4CCCCC4)cc3)cs2)cc1 [Example 8, 4-[4-(3-Piperidino)propoxyphenyl]-2-phenylthiazole]	110	50		92	46	inhibition at 34 µM ([1]; at 34 μM): 50%; % Acid Secreted at mpK ([2]; at 10 mpK): 25%
c1ccc(-c2nc(-c3ccc(OCCCN4CCCC4)cc3)cs2)cc1 [Example 9, 4-[4-(3-Pyrrolidino)propoxyphenyl]-2-phenylthiazole]	390	< 10000			36	inhibition at 32 µM ([1]; at 32 μM): 50%
c1ccc(-c2nc(-c3ccc(OCCCn4ccnc4)cc3)cs2)cc1 [Example 10, 4-[4-(1H-Imidazol-1-yl)propoxyphenyl]-2-phenylthiazole]	80	20			91	inhibition at 18 µM ([1]; at 18 μM): 50%; response vs control in vivo at 5 mg/kg ([2]; Rattus norvegicus, at 5 mpK, read-out: % Acid Secreted at mpK): 33%; response vs control in vivo at 5.7 mg/kg ([2]; Rattus norvegicus, at 5.7 mpK, read-out: % Acid Secreted at mpK): 50%; % Acid Secreted at mpK ([2]; at 10 mpK): 78%
CN(CCCOc1ccc(-c2csc(-c3ccccc3)n2)cc1)Cc1ccccc1 [Example 11, 4-(4-Benzylmethylaminopropoxyphenyl)-2-phenylthiazole]	370	210	39		48	
CCCCN(CCCC)CCOc1ccc(-c2csc(-c3ccccc3)n2)cc1 [Example 12, 4-(4-Dibutylaminoethoxyphenyl)-2-phenylthiazole]	310	350	44		41	
CCCCN(CCCC)CCCCOc1ccc(-c2csc(-c3ccccc3)n2)cc1 [Example 13]	130	120	64	90	56	
c1ccc(-c2nc(-c3ccc(OCCCCn4ccnc4)cc3)cs2)cc1 [Example 14]	820	310	0	31		
CCCCN(CCCC)CCCCCOc1ccc(-c2csc(-c3ccccc3)n2)cc1 [Example 15]	490	860	58		54	
CCCCN(CCCC)CCCOc1ccc(-c2csc(-c3ccc(Cl)cc3)n2)cc1 [Example 16]	2100	1800	55		40	
CCCCN(CCCC)CCCOc1ccc(-c2csc(-c3ccc(OC)cc3)n2)cc1 [Example 17, 4-(4-Dibutylaminopropoxyphenyl)-2-(4-methoxyphenyl)thiazole]	480	230	33		4	
CCCCN(CCCC)CCCOc1ccc(-c2csc(-c3cc(OC)cc(OC)c3)n2)cc1 [Example 18, 4-(4-Dibutylaminopropoxyphenyl)-2-(3,5-dimethoxyphenyl)thiazole]	260	540	30		17	
CCCCN(CCCC)CCCOc1ccc(-c2csc(-c3ccc(C)cc3)n2)cc1 [Example 19, 4-(4-Dibutylaminopropoxyphenyl)-2-(4-methylphenyl)thiazole]	1500	3000			41	inhibition at 24 µM ([1]; at 24 μM): 50%
CCCCN(CCCC)CCCOc1ccc(-c2csc(-c3ccc(C(F)(F)F)cc3)n2)cc1 [Example 20, 4-(4-Dibutylaminopropoxyphenyl)-2-(4-trifluoromethylphenyl)thiazole]	2900	2000		40		inhibition at 10.6 µM ([1]; at 10.6 μM): 50%
CCCCN(CCCC)CCCOc1ccc(-c2csc(-c3cccnc3)n2)cc1 [Example 21, 4-(4-Dibutylaminopropoxyphenyl)-2-(3-pyridinyl)thiazole]	1650	880			19	inhibition at 20 µM ([1]; at 20 μM): 50%
CCCCN(CCCC)CCCOc1c(Cl)cc(-c2csc(-c3ccccc3)n2)cc1Cl [Example 22, 4-[3,5-Dichloro-4-(dibutylaminopropoxy)phenyl]-2-phenylthiazole]	580	240	29		41	
Clc1cc(-c2csc(-c3ccccc3)n2)cc(Cl)c1OCCCn1ccnc1 [Example 23, 4-[3,5-Dichloro-4-(1H-imidazol-1-yl)propoxyphenyl]-2-phenylthiazole]	400	460			33	inhibition at 2.4 µM ([1]; at 2.4 μM): 50%
